Data published in patent publication US5223169A, “Hydrolase surfactant systems and their use in laundering” (priority 1991, dated 1993).

How the values were obtained:
Assay in all cases: pH-stat assay of triglyceride emulsion hydrolysis; critical oil-to-surfactant ratio
[1] = test system: enzyme from P. putida ATCC 53552 (lipase GC-1065); assay type: biochemical, Pseudomonas putida
Excerpt: (§1) To determine the critical ratio for any specific enzyme-surfactant combination, aliquots of an aqueous solution, each containing a determined (constant) amount of the enzyme which is effective in the absence of any surfactant to hydrolyze the triglycerides in an oily stain on a determined (constant) amount of a fabric soiled by a determined (constant) amount of a triglyceride oil, are mixed with a determined (constant) amount of a surfactant which is within the range of the amounts conventionally present in home laundry solutions, e.g., from about 0.2 to 1.5. mM, and which is effective to inhibit the hydrolyzing activity of the enzyme. To the aliquots are added a hydrolysis activator, e.g., trioctanoin, in increasing amounts and the hydrolyzing activity of the enzyme in the various solutions is determined.
(§2) The experiments determining enzyme activity, such as those set out in Tables IA and IB, were carried out as follows:
(§3) The desired amount of triglyceride was weighed into an appropriate size beaker, on a Mettler balance (model number AE163). The corresponding amount of surfactant was added to the triglyceride, from a previously prepared aqueous surfactant stock solution, and the triglyceride and surfactant mixed manually. The sample was then adjusted to the desired weight using doubly distilled H2 O. Emulsification of the sample was carried out, prior to assaying enzyme activity, with a probe sonicator (Braun-Sonic model 2000), on ice, for approx. 2 minutes.
(§4) (ii) Enzyme Activity Measurement:
(§5) This was achieved by monitoring the rate of acid liberation, from the enzymatic hydrolysis of the triglycerides in the emulsion. The assay was initiated by adding approx. 2 ppm lipase to 10 ml of the prepared emulsion. The acid liberated was monitored by autotitration, on a Radiometer pH-stat (model number ABU80) to an endpoint of a pH of 10. Initial rates were recorded for the first 5 minutes of the reaction, and the reaction rates reported as μmole H^+ titrated . min ^-1 mgE^-1. Occasionally enzyme activity is reported as % total oil hydrolyzed in 14 min. In these examples, the reaction was allowed to run for 14 min. and the amount of acid titrated recorded. The % total oil (triglyceride) hydrolyzed was then calculated by dividing the recorded value with the theoretically calculated value assuming three equivalents of oleic acid was produced for each triglyceride equivalent. All assays were run at ambient temperatures.

Enzyme Amano 68S = assay type: biochemical, P. sp.; settings: for Critical Ratio / Enzyme Activity: surfactant conc.: SDS 1 mM
Excerpt: as §1, §2, §3, §4, §5

Enzyme Lipolase = target: T1, Enzyme Lipolase (Thermomyces lanuginosus, UniProt O59952); assay type: biochemical, A. oryzae; settings: for Critical Ratio, LIPOLASE: trioctanoin emulsions, lipase ~2 ppm; for R, critical (minimum activating molar) ratio, LIPOLASE: triolein emulsions
T1 construct: purchased Novo Industri; host or cells: Aspergillus oryzae
T1 sequence (O59952 23-291): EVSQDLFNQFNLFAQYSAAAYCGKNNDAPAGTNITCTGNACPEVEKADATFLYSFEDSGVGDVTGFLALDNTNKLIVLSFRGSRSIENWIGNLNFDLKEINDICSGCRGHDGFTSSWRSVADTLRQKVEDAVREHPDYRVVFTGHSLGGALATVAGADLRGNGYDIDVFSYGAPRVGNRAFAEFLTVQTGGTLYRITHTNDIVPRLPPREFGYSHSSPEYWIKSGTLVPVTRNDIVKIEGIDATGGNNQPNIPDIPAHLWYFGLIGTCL
Excerpt: as §1, §2, §3, §4, §5

Enzyme Amano P = target: T2, Enzyme Amano P (Burkholderia cepacia, UniProt P22088); assay type: biochemical, P. fluorescens
T2 construct: purchased Amano Co
T2 sequence (P22088 45-364): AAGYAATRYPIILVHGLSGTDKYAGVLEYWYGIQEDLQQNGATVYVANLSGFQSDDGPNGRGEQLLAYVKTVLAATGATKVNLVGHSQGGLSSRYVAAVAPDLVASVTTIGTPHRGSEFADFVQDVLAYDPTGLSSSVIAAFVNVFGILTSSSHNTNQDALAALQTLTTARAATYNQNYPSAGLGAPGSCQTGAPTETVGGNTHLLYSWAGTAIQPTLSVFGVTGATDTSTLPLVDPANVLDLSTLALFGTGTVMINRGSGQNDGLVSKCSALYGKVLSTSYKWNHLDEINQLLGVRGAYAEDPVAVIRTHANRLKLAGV
Excerpt: as §1, §2, §3, §4, §5

[2] = Table II, trioctanoin, surfactant conc.: SDS 2 mM, C12 LAS 1 mM, Neodol 25-3S 2 mM, Neodol 25-9 0.5 mM, Surfonic JL80X 0.5 mM, Triton X100 2 mM
[3] = Table Summary, second block of lines (corresponds to triolein Tables VI-IX)
[4] = Table VI, triolein, surfactant conc.: SDS 1 mM, C12 LAS 0.5 mM, Neodol 25-3S 1 mM, Neodol 25-9 0.5 mM, Surfonic JL80X 0.5 mM
[5] = triolein emulsions, high conc.: SDS 10 mM, C12 LAS 5 mM, Neodol 25-9 5 mM, Neodol 25-3S 5 mM, Surfonic JL-80X 2.5 mM
[6] = Table IV, trioctanoin, C12 LAS 0.2 mM, Neodol 25-3S 0.5 mM, Neodol 25-9 0.5 mM, Surfonic JL80X 0.5 mM
[7] = Table VIII, triolein, C12 LAS 0.5 mM, Neodol 25-3S 0.5 mM, Neodol 25-9 0.5 mM, Surfonic JL80X 2.5 mM
[8] = Table III, trioctanoin, surfactant conc.: SDS 2 mM, C12 LAS 1 mM, Neodol 25-3S 2 mM, Neodol 25-9 0.5 mM, Surfonic JL80X 0.5 mM

CCCCCCCCCCCCc1ccc(S(=O)(=O)O)cc1 [C12 LAS]
Critical Ratio [1, 2]: 5-10
Enzyme Activity [1, 2]: 250 μmole H^+ released min^-1 mgE^
critical ratio class, enzyme From ATCC 53552 [1, 3]: 0 (means a critical ratio of 1.0-10)
Critical Ratio [1, 4]: 5-10
Enzyme Activity [1, 4]: 50 μmole H^+ released min^-1 mgE^
Critical Ratio ([1]; Table XVIII, triolein, Pseudomonas putida enzyme, surfactant 0.5 mM): 5-10
Critical Ratio ([1]; Table XVIII, triolein, Pseudomonas putida enzyme, surfactant 5.0 mM): 1-5
Specific Activity determined from initial rates, GC-1065, High ([1]; trioctanoin emulsions, high surfactant conc. as E41): 250 μeq acid/min.mg
Critical Ratio, GC-1065, High ([1]; trioctanoin emulsions, lipase ~2 ppm, high surfactant conc.: SDS 10 mM, C12 LAS 5 mM, Neodol 25-9 5 mM, Neodol 25-3S 10 mM, Surfonic JL-80X 5 mM, Triton X-100 10 mM, C16 DAPS 10 mM): 5-10
Critical Ratio, GC-1065, Low ([1]; trioctanoin emulsions, lipase ~2 ppm, low surfactant conc.: SDS 2 mM, C12 LAS 1 mM, Neodol 25-9 0.5 mM, Neodol 25-3S 2 mM, Surfonic JL-80X 0.5 mM, Triton X-100 2 mM, C16 DAPS 0.5 mM): 2-10
Specific Activity determined from initial rates, GC-1065, Low ([1]; trioctanoin emulsions, low surfactant conc. as E40): 250 μeq acid/min.mg
Activity (specific hydrolysis activity from initial rates), GC-1065, High ([1]; triolein emulsions, high conc. as E55): 60 μeq acid/min./mg
R, critical (minimum activating molar) ratio, GC-1065, High [1, 5]: 1-5
Activity (specific hydrolysis activity from initial rates), GC-1065, Low ([1]; triolein emulsions, low conc. as E54): 50 μeq acid/min./mg
R, critical (minimum activating molar) ratio, GC-1065, Low ([1]; triolein emulsions, low conc.: SDS 1 mM, C12 LAS 0.5 mM, Neodol 25-9 0.5 mM, Neodol 25-3S 1 mM, Surfonic JL-80X 0.5 mM): 5-10
Critical Ratio (Enzyme Amano 68S; [6]): 5-10
Enzyme Activity (Enzyme Amano 68S; [6]): 175 μmole H^+ released min^-1 mgE^
critical ratio class, Amano 68S (Enzyme Amano 68S; [3]): - (means a critical ratio of 10-100)
Critical Ratio (Enzyme Amano 68S; [7]): 10-20
Enzyme Activity (Enzyme Amano 68S; [7]): 30 μmole H^+ released min^-1 mgE^
Specific Activity determined from initial rates, AMANO 68S, High (Enzyme Amano 68S; trioctanoin emulsions, high surfactant conc. as E45): 200 μeq acid/min.mg
Critical Ratio, AMANO 68S, High (Enzyme Amano 68S; trioctanoin emulsions, lipase ~2 ppm, high conc.: SDS 10 mM, C12 LAS 2 mM, Neodol 25-9 5 mM, Neodol 25-3S 10 mM, Surfonic JL-80X 5 mM): 1-5
Critical Ratio, AMANO 68S, Low (Enzyme Amano 68S; trioctanoin emulsions, lipase ~2 ppm, low conc.: SDS 1 mM, C12 LAS 0.2 mM, Neodol 25-9 0.5 mM, Neodol 25-3S 0.5 mM, Surfonic JL-80X 0.5 mM): 5-10
Specific Activity determined from initial rates, AMANO 68S, Low (Enzyme Amano 68S; trioctanoin emulsions, low surfactant conc. as E44): 175 μeq acid/min.mg
Activity (specific hydrolysis activity from initial rates), AMANO 68S, High (Enzyme Amano 68S; triolein emulsions, high conc. as E59): 55 μeq acid/min./mg
R, critical (minimum activating molar) ratio, AMANO 68S, High (Enzyme Amano 68S; triolein emulsions, high conc.: SDS 10 mM, C12 LAS 5 mM, Neodol 25-9 5 mM, Neodol 25-3S 5 mM, Surfonic JL-80X 2.5 mm): 10-20
Activity (specific hydrolysis activity from initial rates), AMANO 68S, Low (Enzyme Amano 68S; triolein emulsions, low conc. as E58): 30 μeq acid/min./mg
R, critical (minimum activating molar) ratio, AMANO 68S, Low (Enzyme Amano 68S; triolein emulsions, low conc.: SDS 1 mM, C12 LAS 0.5 mM, Neodol 25-9 0.5 mM, Neodol 25-3S 0.5 mM, Surfonic JL-80X 2.5 mM): 10-20
Critical Ratio (Enzyme Lipolase; Table IX, triolein, C12 LAS 0.5 mM): 30-40
critical ratio class, Lipolase (Enzyme Lipolase; [3]): - (means a critical ratio of 10-100)
Critical Ratio (Enzyme Lipolase; Table V, trioctanoin, each surfactant 0.5 mM): 0.5-1
Critical Ratio, LIPOLASE (Enzyme Lipolase; surfactant 0.5 mM): 0.5-1
Critical Ratio, LIPOLASE (Enzyme Lipolase; surfactant 5 mM): 0.5-1
R, critical (minimum activating molar) ratio, LIPOLASE (Enzyme Lipolase; surfactant 0.5 mM): 30-40
R, critical (minimum activating molar) ratio, LIPOLASE (Enzyme Lipolase; surfactant 5.0): 40-50
Critical Ratio (Enzyme Amano P; [8]): 5-20
Enzyme Activity (Enzyme Amano P; [8]): 70 μmole H^+ released min^-1 mgE^
critical ratio class, Amano P (Enzyme Amano P; [3]): - (means a critical ratio of 10-100)
Enzyme Activity (Enzyme Amano P; Table VII, triolein, surfactant conc.: SDS 1 mM, others 0.5 mM): 13 μmole H^+ released min^-1 mgE^
Specific Activity determined from initial rates, AMANO P, High (Enzyme Amano P; trioctanoin emulsions, high surfactant conc. as E43): 70 μeq acid/min.mg
Critical Ratio, AMANO P, High (Enzyme Amano P; trioctanoin emulsions, lipase ~2 ppm, high conc.: SDS 10 mM, C12 LAS 5 mM, Neodol 25-9 5 mM, Neodol 25-3S 20 mM, Surfonic JL-80X 5 mM): 5-10
Critical Ratio, AMANO P, Low (Enzyme Amano P; trioctanoin emulsions, lipase ~2 ppm, low conc.: SDS 2 mM, C12 LAS 1 mM, Neodol 25-9 0.5 mM, Neodol 25-3S 2.0 mM, Surfonic JL-80X 0.5 mM): 5-10
Specific Activity determined from initial rates, AMANO P, Low (Enzyme Amano P; trioctanoin emulsions, low surfactant conc. as E42): 70 μeq acid/min.mg
Activity (specific hydrolysis activity from initial rates), AMANO P, High (Enzyme Amano P; triolein emulsions, high conc. as E57): 26 μeq acid/min./mg
R, critical (minimum activating molar) ratio, AMANO P, High (Enzyme Amano P; [5]): 10-20
Activity (specific hydrolysis activity from initial rates), AMANO P, Low (Enzyme Amano P; triolein emulsions, low conc. as E56): 13 μeq acid/min./mg
R, critical (minimum activating molar) ratio, AMANO P, Low (Enzyme Amano P; triolein emulsions, low conc.: SDS 1 mM, others 0.5 mM): 10-20
